This is an account of results in publication PMC3281693 (The Journal of Biological Chemistry, 2011).

Data set [1] addresses T1, Rpm1-NBARC (Arabidopsis thaliana, UniProt Q39214).
T1 sequence (Q39214 177-519): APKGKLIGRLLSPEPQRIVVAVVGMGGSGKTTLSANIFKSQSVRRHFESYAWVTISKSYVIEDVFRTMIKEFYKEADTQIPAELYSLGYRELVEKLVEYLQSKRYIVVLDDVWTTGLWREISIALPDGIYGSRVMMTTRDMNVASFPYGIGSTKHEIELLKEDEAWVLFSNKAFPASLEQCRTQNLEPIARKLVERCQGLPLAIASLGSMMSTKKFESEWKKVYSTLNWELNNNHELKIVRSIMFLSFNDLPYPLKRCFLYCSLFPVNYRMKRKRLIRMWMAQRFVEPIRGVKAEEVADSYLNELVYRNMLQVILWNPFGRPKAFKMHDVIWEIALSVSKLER
The following applies: 100 μM ATP, 10 nM protein; MgCl2, pH 7.5.

Data set [2] concerns the molecule itself. The experiment in a line: cross-linking.

As to `Nc1ncnc2c1ncn2[C@@H]1O[C@H](COP(=O)(O)OP(=O)(O)OP(=O)(O)O)[C@@H](O)[C@H]1O` [ATP], the “nucleotide phosphatase assay, HPLC” value in data set [1] was “Rpm1-NBARC catalyzed the production of Ado from ATP and ADP”.

B1: E. coli catabolite-activated protein (CAP) (natural protein, UniProt P0ACJ8 1-210, looked up)
chain: MVLGKPQTDPTLEWFLSHCHIHKYPSKSTLIHQGEKAETLYYIVKGSVAVLIKDEEGKEMILSYLNQGDFIGELGLFEEGQERSAWVRAKTACEVAEISYKKFRQLIQVNPDILMRLSAQMARRLQVTSEKVGNLAFLDVTGRIAQTLLNLAKQPDAMTHPDGMQIKITRQEIGQIVGCSRETVGRILKMLEDQNLISAHGKTIVVYGTR
What is called stoichiometry N is a count of units in the complex or per binding partner. In the case of B1, the “stoichiometry N” value in data set [2] was 2.
